Data taken from ChEMBL document CHEMBL2040836, “1,3,8-Triazaspiro[4.5]decane-2,4-diones as efficacious pan-inhibitors of hypoxia-inducible factor prolyl hydroxylase 1-3 (HIF PHD1-3) for the treatment of anemia” (J Med Chem, 2012).

Tests used:
[1] = system: Mus musculus; assay: Toxicity in C57BL/6 mouse assessed as increase in liver ALT level at 50 mg/kg, iv; format: organism-based; parameters: dose 50 mg/kg, route intravenous; details: in vivo
[2] = in vivo; details: Sprague-Dawley, rat
[3] = in vivo; details: Sprague-Dawley, rat; remark: listed apart in the source
[4] = in vivo; details: Sprague-Dawley, rat; remark: listed apart in the source
[5] = in vivo; details: Sprague-Dawley, rat; remark: listed apart in the source
[6] = in vivo; details: Sprague-Dawley, rat, po
[7] = Metabolic stability in rat liver microsomes assessed as compound remaining after 30 mins; format: ADME, Microsome; details: read-out: Stability
[8] = AUC in Sprague-Dawley rat; format: ADME, organism-based; parameters: concentration or dose not given beside the values; details: plasma
[9] = system: Mus musculus; assay: Volume of distribution at steady state in mouse at 5 mg/kg, po; format: ADME, organism-based; parameters: dose 5 mg/kg, route oral; details: in vivo
[10] = Cmax in mouse at 5 mg/kg, po; format: ADME, organism-based; parameters: dose 5 mg/kg, route oral; details: in vivo
[11] = Oral bioavailability in mouse at 5 mg/kg; format: ADME, organism-based; details: in vivo
[12] = AUC in dog; format: ADME, organism-based, Canis lupus familiaris; details: plasma
[13] = Clearance in dog; format: ADME, organism-based, Canis lupus familiaris; details: in vivo
[14] = Half life in dog; format: ADME, organism-based, Canis lupus familiaris; details: in vivo
[15] = Clearance in mouse at 5 mg/kg, po; format: ADME, organism-based; parameters: dose 5 mg/kg, route oral; details: in vivo
[16] = (§1) Half life in mouse at 5 mg/kg, po; format: ADME, organism-based; parameters: dose 5 mg/kg, route oral; details: in vivo
[17] = Oral bioavailability in dog; format: ADME, organism-based, Canis lupus familiaris; details: in vivo
[18] = Cmax in dog; format: ADME, organism-based, Canis lupus familiaris; details: in vivo
[19] = AUC in mouse at 5 mg/kg, po; format: ADME, organism-based; parameters: dose 5 mg/kg, route oral; details: plasma
[20] = Volume of distribution at steady state in dog; format: ADME, organism-based, Canis lupus familiaris; details: in vivo, read-out: Vdss
[21] = system: Mus musculus; assay: as §1; format: ADME, organism-based; parameters: dose 5 mg/kg, route oral; details: in vivo
[22] = system: Mus musculus; assay: Toxicity in C57BL/6 mouse assessed as increase in liver ALT level at 15 mg/kg, iv; format: organism-based; parameters: dose 15 mg/kg, route intravenous; details: in vivo
[23] = Toxicity in iv dosed C57BL/6 mouse assessed as no observable effect level; format: organism-based; details: in vivo

SMILES	Vd [2] [L/kg]	clearance [3] [mL/min/kg]	half-life [4] [h]	Cmax [5] [nM]	bioavailability [6] [%]	also measured
COc1cc(N2C(=O)N(c3ccc(-c4ccc(C(N)=O)cc4)cc3)C(=O)C23CCN(Cc2ncccc2C)CC3)ncn1						fold change (FC) [1]: 6.6
Cc1cccnc1CN1CCC2(CC1)C(=O)N(c1ccc(-c3ccc(C(=O)O)cc3)cc1)C(=O)N2c1ncccn1	2.2	51	1.1	100	18	
Cc1cc(C(=O)O)ccc1-c1ccc(N2C(=O)N(c3cnccn3)C3(CCN(Cc4ncccc4C)CC3)C2=O)cc1	1.6	22	1.5	390	29	
Cc1cccnc1CN1CCC2(CC1)C(=O)N(c1ccc(-c3ccc(C(=O)O)cc3)cc1)C(=O)N2c1ccncn1	2	16	2.2	580	8	
Cc1cc(C(=O)O)ccc1-c1ccc(N2C(=O)N(c3ccncn3)C3(CCN(Cc4ncccc4C)CC3)C2=O)cc1	1.9	34	1.1	390	47	
Cn1ccnc1CN1CCC2(CC1)C(=O)N(c1cnc3ccccc3c1)c1ccccc12						remaining at 0.5 h [7]: < 10%
Cc1cccnc1CN1CCC2(CC1)C(=O)N(c1cnc3ccccc3c1)c1ccccc12						remaining at 0.5 h [7]: 35%
Cc1cccnc1CN1CCC2(CC1)C(=O)N(c1ccc(-c3ccccc3)cc1)c1ccccc12	8.2	30	3	79	11	AUC [8]: 1.2 µM·h
Cc1cccnc1CN1CCC2(CC1)C(=O)N(c1ccc(-c3ccccc3)cc1)c1ncccc12	8	59	1.9	40	0	AUC [8]: 0.6 µM·h
Cc1cccnc1CN1CCC2(CC1)NC(=O)N(c1ccc(-c3ccccc3)cc1)C2=O	2.6	275	0.12	17	42	AUC [8]: 0.14 µM·h
Cc1cccnc1CN1CCC2(NC(=O)N(c3ccc(-c4ccccc4)cc3)C2=O)C(C(=O)O)C1 (stereo unspecified)	0.58	11	1.1	40	14	AUC [8]: 3.2 µM·h
Cc1cccnc1CN1CCC2(CC1)C(=O)N(c1ccc(-c3ccccc3)cc1)C(=O)N2c1nccc(O)n1	0.72	9	1.1	990	66	Vdss [9]: 1.3 L/kg; Cmax [10]: 990 nM; bioavailability [11]: 78%; AUC [12]: 41 µM·h; clearance [13]: 1.3 mL/min/kg; half-life [14]: 13 h; CL/F [15]: 13 mL/min/kg; half-life [16]: 1.4 h; bioavailability [17]: 26%; Cmax [18]: 1500 nM; AUC [8]: 3.7 µM·h; AUC [19]: 1.4 µM·h; Vd [20]: 1.1 L/kg
Cc1cccnc1CN1CCC2(CC1)C(=O)N(c1ccc(-c3ccccc3)cc1)C(=O)N2c1ncccn1	2.1	51	1.1	101	18	
Cc1cccnc1CN1CCC2(CC1)C(=O)N(c1ccc(-c3ccccc3)cc1)C(=O)N2c1cc(O)ccn1	1.4	35	0.5	340	49	
Cc1cccnc1CN1CCC2(CC1)C(=O)N(c1ccc(-c3ccccc3)cc1)C(=O)N2c1ccnc(O)n1	0.9	14	1.2	1300	39	
Cc1cccnc1CN1CCC2(CC1)C(=O)N(c1ccc(-c3ccccc3)cc1)C(=O)N2c1ccc(O)nn1	1.1	40	1.2	300	58	
Cc1cccnc1CN1CCC2(C(=O)N(c3ccc(-c4ccccc4)cc3)C(=O)N2c2cc(O)ncn2)C(C(=O)O)C1 (stereo unspecified)	0.34	1.2	3.6	63	4.3	Vdss [9]: 0.4 L/kg; Cmax [10]: 300 nM; bioavailability [11]: 7.1%; t1/2 [21]: 2.1 h
COc1cc(N2C(=O)N(c3ccc(-c4ccc(C(=O)O)cc4)cc3)C(=O)C23CCN(Cc2ncccc2C)CC3)ncn1	1.7	8.8	2.6	1900	92	Vdss [9]: 0.4 L/kg; Cmax [10]: 6100 nM; bioavailability [11]: 36%; CL/F [15]: 1.2 mL/min/kg; half-life [16]: 3.7 h
COc1cc(N2C(=O)N(c3ccc(-c4cccc(C(=O)O)c4)cc3)C(=O)C23CCN(Cc2ncccc2C)CC3)ncn1						fold change (FC) [22]: 6.1
COc1cc(N2C(=O)N(c3ccc(-c4ccc(C(=O)O)cc4C)cc3)C(=O)C23CCN(Cc2ncccc2C)CC3)ncn1	4.3	11.9	4.1	570	64	NOAEL [23]: 50 mg/kg
